Values after ≈ are worked out from the molar mass of the structure shown.
Columns and labels:
Experiment in all cases: MIC, microdilution broth method (NCCLS)
Format in all cases: cell-based
Conditions in all cases: 35° C., 16-20 hours
[1] = test system: E. coli OC2605
In short: (§1)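 Growth in each compound well, compared with drug-free control wells after 16-20 h at 35° C, defines the MIC. Wells hold two-fold dilutions in cation-adjusted Mueller-Hinton broth with roughly 5×10^4 CFU/well.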

[2] = test system: S. pneumoniae ATCC49619
In short: as §1

[3] = test system: E. faecalis ATCC29212
In short: as §1

[4] = test system: H. influenzae ATCC49247
In short: as §1

[5] = test system: S. aureus ATCC29213
In short: as §1

SMILES	MIC (A: E. coli OC2605) [1] [µg/mL]	MIC (D: S. pneumoniae ATCC49619) [2]	MIC (C: E. faecalis ATCC29212) [3] [µg/mL]	MIC (E: H. influenzae ATCC49247) [4] [µg/mL]	MIC (B: S. aureus ATCC29213) [5] [µg/mL]
CC[C@H]1OC(=O)[C@H](C)C(=O)[C@H](C)[C@@H](O[C@@H]2O[C@H](C)C[C@H](N(C)C)[C@H]2O)[C@](C)(OC(=O)NNCc2ccc(-c3ncccn3)cc2)C[C@@H](C)C(=O)[C@H](C)[C@H]2NC(=O)O[C@@]21C [Compound 676]	8 (≈ 9.7 µM)	0.03 µg/mL (≈ 0.0364 µM)	0.12 (≈ 0.145 µM)	4 (≈ 4.85 µM)	0.25 (≈ 0.303 µM)
CC[C@H]1OC(=O)[C@H](C)C(=O)[C@H](C)[C@@H](O[C@@H]2O[C@H](C)C[C@H](N(C)C)[C@H]2O)[C@](C)(OC(=O)SCc2cn(-c3ncccn3)cn2)C[C@@H](C)C(=O)[C@H](C)[C@H]2NC(=O)O[C@@]21C [Compound 841]	–	0.03 µg/mL (≈ 0.0367 µM)	0.12 (≈ 0.147 µM)	2 (≈ 2.45 µM)	0.5 (≈ 0.612 µM)
CC[C@H]1OC(=O)[C@H](C)C(=O)[C@H](C)[C@@H](O[C@@H]2O[C@H](C)C[C@H](N(C)C)[C@H]2O)[C@](C)(OC(=O)CCCc2ccccc2)C[C@@H](C)C(=O)[C@H](C)[C@H]2NC(=O)O[C@@]21C [Compound 844]	–	0.03 µg/mL (≈ 0.0403 µM)	0.12 (≈ 0.161 µM)	4 (≈ 5.37 µM)	0.5 (≈ 0.671 µM)
CC[C@H]1OC(=O)[C@H](C)C(=O)[C@H](C)[C@@H](O[C@@H]2O[C@H](C)C[C@H](N(C)C)[C@H]2O)[C@](C)(OC(=O)n2ccc(C(=N)Cc3ccccc3)c2)C[C@@H](C)C(=O)[C@H](C)[C@H]2NC(=O)O[C@@]21C [Compound 845]	–	4 µg/mL (≈ 4.94 µM)	>16	>16	>16
CC[C@H]1OC(=O)[C@H](C)C(=O)[C@H](C)[C@@H](O[C@@H]2O[C@H](C)C[C@H](N(C)C)[C@H]2O)[C@](C)(OC(=O)N(C)NCc2ccc(-c3cnccn3)cc2)C[C@@H](C)C(=O)[C@H](C)[C@H]2NC(=O)O[C@@]21C [Compound 817]	–	0.06 µg/mL (≈ 0.0715 µM)	0.25 (≈ 0.298 µM)	8 (≈ 9.54 µM)	2 (≈ 2.38 µM)
CCC1OC(=O)C(C)C(=O)C(C)C(OC2OC(C)CC(N(C)C)C2O)C(C)(OC(=O)OCCCCc2ccc(-c3ncccn3)cc2)CC(C)C(=O)C(C)C2NC(=O)OC12C (stereo not shown) [Compound 286]	–	0.06 µg/mL (≈ 0.0703 µM)	0.25 (≈ 0.293 µM)	4 (≈ 4.69 µM)	0.25 (≈ 0.293 µM)
CC[C@H]1OC(=O)[C@H](C)C(=O)[C@H](C)[C@@H](O[C@@H]2O[C@H](C)C[C@H](N(C)C)[C@H]2O)[C@](C)(OC(=O)SCc2ccc(-c3ncccn3)cc2)C[C@@H](C)C(=O)[C@H](C)[C@H]2NC(=O)O[C@@]21C [Compound 834]	–	<0.015 µg/mL	0.12 (≈ 0.145 µM)	8 (≈ 9.67 µM)	0.5 (≈ 0.605 µM)
CC[C@H]1OC(=O)[C@H](C)C(=O)[C@H](C)[C@@H](O[C@@H]2O[C@H](C)C[C@H](N(C)C)[C@H]2O)[C@](C)(OC(=O)NNS(=O)(=O)c2ccc(C)cc2)C[C@@H](C)C(=O)[C@H](C)[C@H]2NC(=O)O[C@@]21C [Compound 809]	–	0.03 µg/mL (≈ 0.037 µM)	0.5 (≈ 0.617 µM)	2 (≈ 2.47 µM)	1 (≈ 1.23 µM)
CC[C@H]1OC(=O)[C@H](C)C(=O)[C@H](C)[C@@H](O[C@@H]2O[C@H](C)C[C@H](N(C)C)[C@H]2O)[C@](C)(OC(=O)SCCc2ccc(-n3cncn3)cc2)C[C@@H](C)C(=O)[C@H](C)[C@H]2NC(=O)O[C@@]21C [Compound 836]	–	0.03 µg/mL (≈ 0.0361 µM)	0.12 (≈ 0.145 µM)	1 (≈ 1.2 µM)	0.25 (≈ 0.301 µM)
CCC1OC(=O)C(C)C(=O)C(C)C(OC2OC(C)CC(N(C)C)C2O)C(C)(OC(=O)NOCc2ccc(-c3cnccn3)cc2)CC(C)C(=O)C(C)C2NC(=O)OC12C (stereo not shown) [Compound 601]	–	0.03 µg/mL (≈ 0.0363 µM)	0.12 (≈ 0.145 µM)	2 (≈ 2.42 µM)	0.25 (≈ 0.303 µM)

The next lines start with the values.

MIC (A: E. coli OC2605) [1] [µg/mL]	MIC (D: S. pneumoniae ATCC49619) [2]	MIC (C: E. faecalis ATCC29212) [3] [µg/mL]	MIC (E: H. influenzae ATCC49247) [4] [µg/mL]	MIC (B: S. aureus ATCC29213) [5] [µg/mL]	SMILES
–	≦0.015 μg/mL	0.06 (≈ 0.0702 µM)	2 (≈ 2.34 µM)	0.12 (≈ 0.14 µM)	CCC1OC(=O)C(C)C(=O)C(C)C(OC2OC(C)CC(N(C)C)C2O)C(C)(OC(=O)OCC=C(F)c2ccc(-c3ncccn3)cc2)CC(C)C(=O)C(C)C2NC(=O)OC12C (stereo not shown) [Compound 224]
–	0.03 µg/mL (≈ 0.0356 µM)	0.12 (≈ 0.142 µM)	1 (≈ 1.19 µM)	0.25 (≈ 0.297 µM)	CCC1OC(=O)C(C)C(=O)C(C)C(OC2OC(C)CC(N(C)C)C2O)C(C)(OC(=O)OCC=Cc2ccc(-c3cnccn3)s2)CC(C)C(=O)C(C)C2NC(=O)OC12C (stereo not shown) [Compound 65]
–	≦0.015 μg/mL	0.06 (≈ 0.0726 µM)	1 (≈ 1.21 µM)	0.12 (≈ 0.145 µM)	CCC1OC(=O)C(C)C(=O)C(C)C(OC2OC(C)CC(N(C)C)C2O)C(C)(OC(=O)OCC=Cc2ccc(-n3ccnn3)cc2)CC(C)C(=O)C(C)C2NC(=O)OC12C (stereo not shown) [Compound 24]
–	0.12 µg/mL (≈ 0.145 µM)	0.25 (≈ 0.303 µM)	8 (≈ 9.68 µM)	2 (≈ 2.42 µM)	CC[C@H]1OC(=O)[C@H](C)C(=O)[C@H](C)[C@@H](O[C@@H]2O[C@H](C)C[C@H](N(C)C)[C@H]2O)[C@](C)(OC(=O)SC/C=C/c2cnc3ccccc3c2)C[C@@H](C)C(=O)[C@H](C)[C@H]2NC(=O)O[C@@]21C [Compound 837]
–	≦0.015 μg/mL	0.06 (≈ 0.0741 µM)	0.5 (≈ 0.617 µM)	0.12 (≈ 0.148 µM)	CCC1OC(=O)C(C)C(=O)C(C)C(OC2OC(C)CC(N(C)C)C2O)C(C)(OC(=O)OCC=Cc2cnc3ccccc3c2)CC(C)C(=O)C(C)C2NC(=O)OC12C (stereo not shown) [Compound 37]
–	≦0.015 μg/mL	0.06 (≈ 0.0726 µM)	0.5 (≈ 0.605 µM)	0.12 (≈ 0.145 µM)	CCC1OC(=O)C(C)C(=O)C(C)C(OC2OC(C)CC(N(C)C)C2O)C(C)(OC(=O)OCC=Cc2ccc(-c3ncco3)cc2)CC(C)C(=O)C(C)C2NC(=O)OC12C (stereo not shown) [Compound 47]
–	0.03 µg/mL (≈ 0.0363 µM)	0.12 (≈ 0.145 µM)	1 (≈ 1.21 µM)	0.25 (≈ 0.302 µM)	CCC1OC(=O)C(C)C(=O)C(C)C(OC2OC(C)CC(N(C)C)C2O)C(C)(OC(=O)OCC=Cc2cn(-c3cnccn3)cn2)CC(C)C(=O)C(C)C2NC(=O)OC12C (stereo not shown) [Compound 35]
–	0.03 µg/mL (≈ 0.0356 µM)	0.12 (≈ 0.143 µM)	1 (≈ 1.19 µM)	0.12 (≈ 0.143 µM)	CCC1OC(=O)C(C)C(=O)C(C)C(OC2OC(C)CC(N(C)C)C2O)C(C)(OC(=O)OCC=Cc2ccc(-c3nccs3)cc2)CC(C)C(=O)C(C)C2NC(=O)OC12C (stereo not shown) [Compound 49]

Reference: patent publication US6825170B2, “6-O-acyl ketolide antibacterials” (Ortho-McNeil Pharmaceutical, Inc., priority 2001, dated 2004)
